We go through 53 molecules from patent US20220144815A1, “1,3,4-OXADIAZOLES AND THEIR DERIVATIVES AS NEW ANTIFUNGAL AGENTS” (Bayer Aktiengesellschaft, priority 2018, published 2022).

The nature of one data set: Log P by HPLC on reversed phase columns, method [a] (EEC directive 79/831 Annex V.A8). Format: physicochemical. Particulars: log P determined according to method [a] (HPLC on reversed phase columns). How it is done:
Measurement of Log P values as provided herein was performed according to EEC directive 79/831 Annex V.A8 by HPLC (High Performance Liquid Chromatography) on reversed phase columns with the following methods: • ^[a] Log P value is determined by measurement of LC-UV, in an acidic range, with 0.1% formic acid in water and acetonitrile as eluent (linear gradient from 10% acetonitrile to 95% acetonitrile). • ^[b] Log P value is determined by measurement of LC-UV, in a neutral range, with 0.001 molar ammonium acetate solution in water and acetonitrile as eluent (linear gradient from 10% acetonitrile to 95% acetonitrile). • ^[c] Log P value is determined by measurement of LC-UV, in an acidic range, with 0.1% phosphoric acid and acetonitrile as eluent (linear gradient from 10% acetonitrile to 95% acetonitrile). If more than one Log P value is available within the same method, all the values are given and separated by “+”. Calibration was done with straight-chain alkan2-ones (with 3 to 16 carbon atoms) with known Log P values (measurement of Log P values using retention times with linear interpolation between successive alkanones). Lambda-max-values were determined using UV-spectra from 200 nm to 400 nm and the peak values of the chromatographic signals In table 1, the log P values were determined according to method [^a]. In table 2, the log P values were determined according to method [^a].
The molecule `FC(F)c1nnc(-c2cnc(-c3cccnc3)nc2)o1` [Example I-070] returned a logP of 2.03. On the same count and under the same terms, the figure for `FC(F)c1nnc(-c2cnc(-c3cccs3)nc2)o1` [Example I-071] is 2.64; for `FC(F)c1nnc(-c2cnc(-c3ccsc3)nc2)o1` [Example I-072] it is 2.64; for `CC(Nc1ncc(-c2nnc(C(F)F)o2)cn1)C1CC1` (centres unmarked) [Example I-073] it is 2.51.

`FC(F)c1nnc(-c2cnc(N3CCOCC3)nc2)o1` [Example I-074]: the logP turned out to be 1.87. Still for that read-out and setting: next, `FC(F)c1nnc(-c2cnc(Cc3ccccc3)nc2)o1` [Example I-075]: 2.49; `FC(F)c1nnc(-c2cnc(Nc3ccccc3)nc2)o1` [Example I-076]: 2.54. `Fc1ccc(-c2ncc(-c3nnc(C(F)F)o3)cn2)cc1` [Example I-077] displayed a log partition coefficient (logP) of 3.70. Consider `CCn1nccc1-c1ncc(-c2nnc(C(F)F)o2)cn1` [Example I-078], for which the log partition coefficient (logP) is listed as 2.18. On the same count and under the same terms, the figure for `Fc1cc(-c2ncc(-c3nnc(C(F)F)o3)cn2)ccn1` [Example I-079] is 2.33; for `Fc1ccc(-c2ncc(-c3nnc(C(F)F)o3)cn2)cn1` [Example I-080] it is 2.31. On the same count and under the same terms, the figure for `Cc1noc(C)c1-c1ncc(-c2nnc(C(F)F)o2)cn1` [Example I-081] is 2.57. On the same count and under the same terms, next, `FC(F)c1nnc(-c2cnc(NC3(C4CC4)CC3)nc2)o1` [Example I-082]: 2.33.

On to `FC(F)c1nnc(-c2cnc(CC3CCCCC3)nc2)o1` [Example I-083], for which the logP came out at 3.40. With `CC(C)(Nc1ncc(-c2nnc(C(F)F)o2)cn1)C1CC1` [Example I-084], the logP is given as 3.26. Same read-out and setting: next, `N#Cc1ccc(-c2ncc(-c3nnc(C(F)F)o3)cn2)cc1` [Example I-085]: 2.72; `Cc1ccccc1Nc1ncc(-c2nnc(C(F)F)o2)cn1` [Example I-086]: 2.51; `CN(c1ccccc1)c1ncc(-c2nnc(C(F)F)o2)cn1` [Example I-087]: 2.80. On the same count and under the same terms, next, `FC(F)c1nnc(-c2cnc(NCc3ccccc3)nc2)o1` [Example I-088]: 2.57. Same read-out and setting: next, `COc1ccc(-c2ncc(-c3nnc(C(F)F)o3)cn2)cc1` [Example I-089]: 3.01. In the case of `FC(F)c1nnc(-c2cnc(OCc3ccccc3)nc2)o1` [Example I-090], the logP is 2.75. Same read-out and setting: the figure for `Fc1ccc(Cc2ncc(-c3nnc(C(F)F)o3)cn2)cc1` [Example I-091] is 2.59; for `FC(F)c1nnc(-c2cnc(Sc3ccccc3)nc2)o1` [Example I-092] it is 3.04; for `Fc1ccccc1Nc1ncc(-c2nnc(C(F)F)o2)cn1` [Example I-093] it is 2.43.

In the case of `Fc1cccc(Nc2ncc(-c3nnc(C(F)F)o3)cn2)c1` [Example I-094], the lipophilicity (logP) is given as 2.77. On the same count and under the same terms, the figure for `Fc1ccc(Nc2ncc(-c3nnc(C(F)F)o3)cn2)cc1` [Example I-095] is 2.64; for `CCn1nccc1Nc1ncc(-c2nnc(C(F)F)o2)cn1` [Example I-096] it is 1.49.

Turning to `CC1(C2(Nc3ncc(-c4nnc(C(F)F)o4)cn3)CC2)CC1` [Example I-097], the lipophilicity (logP) was found to be 2.89. Molecule `Fc1ccc(Oc2ncc(-c3nnc(C(F)F)o3)cn2)cc1` [Example I-098] yielded a lipophilicity (logP) of 2.51. The same measure, in the same setting: next, `FC(F)c1nnc(-c2cnc(-c3ccccc3Cl)nc2)o1` [Example I-099]: 3.32.

The same data set, now with this note: reversed phase HPLC column; Method A: LC-UV, acidic range, 0.1% formic acid in water and acetonitrile; read-out: Log P.
On to `COC(=O)c1ccc(-c2nnc(C(F)(F)F)s2)cc1` [I.011, methyl 4-[5-(trifluoromethyl)-1,3,4-thiadiazol-2-yl]benzoate], for which the chromatographic logP came to 3.23.

The same data set, now with this note: reversed phase HPLC column; log P determined according to method [a] (HPLC on reversed phase columns); read-out: logP.
In the case of `FC(F)c1nnc(-c2cnc(-c3cccc(Cl)c3)nc2)o1` [I.100, 2-(3-chlorophenyl)-5-[5-(difluoromethyl)-1,3,4-oxadiazol-2-yl]pyrimidine], the chromatographic logP was 4.21. The same measure, in the same setting: the figure for `FC(F)c1nnc(-c2cnc(-c3ccc(Cl)cc3)nc2)o1` [I.101, 2-(4-chlorophenyl)-5-[5-(difluoromethyl)-1,3,4-oxadiazol-2-yl]pyrimidine] is 3.6. Same read-out and setting: next, `FC(F)c1nnc(-c2cnc(-c3ccnc(Cl)c3)nc2)o1` [I.102, 2-(2-chloropyridin-4-yl)-5-[5-(difluoromethyl)-1,3,4-oxadiazol-2-yl]pyrimidine]: 2.59; `FC(F)c1nnc(-c2cnc(-c3cncc(Cl)c3)nc2)o1` [I.103, 2-(5-chloropyridin-3-yl)-5-[5-(difluoromethyl)-1,3,4-oxadiazol-2-yl]pyrimidine]: 2.59; `COC(=O)C1(Nc2ncc(-c3nnc(C(F)F)o3)cn2)CC1` [I.104, methyl 1-({5-[5-(difluoromethyl)-1,3,4-oxadiazol-2-yl]pyrimidin-2-yl}amino)cyclopropanecarboxylate]: 1.64. Same read-out and setting: the figure for `FC(F)c1nnc(-c2cnc(N3Cc4ccccc4C3)nc2)o1` [I.106, 2-{5-[5-(difluoromethyl)-1,3,4-oxadiazol-2-yl]pyrimidin-2-yl}isoindoline] is 3.1; for `COc1ccccc1Cc1ncc(-c2nnc(C(F)F)o2)cn1` [I.107, 5-[5-(difluoromethyl)-1,3,4-oxadiazol-2-yl]-2-(2-methoxybenzyl)pyrimidine] it is 2.51. On to `COc1ccccc1Nc1ncc(-c2nnc(C(F)F)o2)cn1` [I.109, 5-[5-(difluoromethyl)-1,3,4-oxadiazol-2-yl]-N-(2-methoxyphenyl)pyrimidin-2-amine], for which the chromatographic logP is 2.8. The same measure, in the same setting: next, `Fc1ccccc1CNc1ncc(-c2nnc(C(F)F)o2)cn1` [I.111, 5-[5-(difluoromethyl)-1,3,4-oxadiazol-2-yl]-N-(2-fluorobenzyl)pyrimidin-2-amine]: 2.62; `FC(F)c1nnc(-c2cnc(Nc3ccccc3Cl)nc2)o1` [I.114, N-(2-chlorophenyl)-5-[5-(difluoromethyl)-1,3,4-oxadiazol-2-yl]pyrimidin-2-amine]: 2.92. Still for that read-out and setting: next, `CCOC(=O)C1(Nc2ncc(-c3nnc(C(F)F)o3)cn2)CC1` [I.117, ethyl 1-({5-[5-(difluoromethyl)-1,3,4-oxadiazol-2-yl]pyrimidin-2-yl}amino)cyclopropanecarboxylate]: 1.94; `FC(F)c1nnc(-c2cnc(Nc3ccccc3C3CC3)nc2)o1` [I.119, N-(2-cyclopropylphenyl)-5-[5-(difluoromethyl)-1,3,4-oxadiazol-2-yl]pyrimidin-2-amine]: 3.1. Still for that read-out and setting: next, `C[C@@H](Nc1ncc(-c2nnc(C(F)F)o2)cn1)c1ccc(F)cc1` [I.125a, 5-[5-(difluoromethyl)-1,3,4-oxadiazol-2-yl]-N-[(1R)-1-(4-fluorophenyl)ethyl]pyrimidin-2-amine]: 2.86; `C[C@H](Nc1ncc(-c2nnc(C(F)F)o2)cn1)c1ccc(F)cc1` [I.125b, 5-[5-(difluoromethyl)-1,3,4-oxadiazol-2-yl]-N-[(1S)-1-(4-fluorophenyl)ethyl]pyrimidin-2-amine]: 2.85; `FC(F)c1nnc(-c2cnc(NC3(C4CCCCC4)CC3)nc2)o1` [I.126, N-(1-cyclohexylcyclopropyl)-5-[5-(difluoromethyl)-1,3,4-oxadiazol-2-yl]pyrimidin-2-amine]: 3.57. As for `FC(F)c1nnc(-c2cnc(NCc3ccccc3Cl)nc2)o1` [I.128, N-(2-chlorobenzyl)-5-[5-(difluoromethyl)-1,3,4-oxadiazol-2-yl]pyrimidin-2-amine], the chromatographic logP worked out at 2.95. Still for that read-out and setting: next, `Fc1cccc(F)c1CNc1ncc(-c2nnc(C(F)F)o2)cn1` [I.129, N-(2,6-difluorobenzyl)-5-[5-(difluoromethyl)-1,3,4-oxadiazol-2-yl]pyrimidin-2-amine]: 2.67. The same measure, in the same setting: next, `Fc1ccccc1Nc1ncc(-c2nnc(C(F)(F)F)s2)cn1` [I.130, N-(2-fluorophenyl)-5-[5-(trifluoromethyl)-1,3,4-thiadiazol-2-yl]pyrimidin-2-amine]: 3.3. Still for that read-out and setting: next, `CCC(C)(Nc1ncc(-c2nnc(C(F)F)o2)cn1)c1ccccc1` (centres unmarked) [I.138, 5-[5-(difluoromethyl)-1,3,4-oxadiazol-2-yl]-N-(2-phenylbutan-2-yl)pyrimidin-2-amine]: 3.5; `FC(F)c1nnc(-c2cnc(OC3(c4ccccc4)COC3)nc2)o1` [I.142, 5-[5-(difluoromethyl)-1,3,4-oxadiazol-2-yl]-2-[(3-phenyloxetan-3-yl)oxy]pyrimidine]: 2.51; `FC(F)c1nnc(-c2cnc(OC3(c4ccccn4)COC3)nc2)o1` [I.143, 5-[5-(difluoromethyl)-1,3,4-oxadiazol-2-yl]-2-{[3-(pyridin-2-yl)oxetan-3-yl]oxy}pyrimidine]: 1.66. For `CCON(Cc1ccccc1)c1ncc(-c2nnc(C(F)F)o2)cn1` [I.148, N-benzyl-N-{5-[5-(difluoromethyl)-1,3,4-oxadiazol-2-yl]pyrimidin-2-yl}-O-ethylhydroxylamine], the chromatographic logP worked out at 3.28.

By logP is commonly meant a log measure of how a compound divides between an organic and an aqueous phase. Read a high logP as a more lipophilic compound.
